Assay results from patent US20100144802A1, “Small Molecule Inhibitors for Immune Modulation” (priority 2007, published 2010).

Tests used:
[1] = tested on: CD80 and CD86; conditions: cited from earlier work
[2] = tested on: macrophages; assay: Macrophage intracellular cytokine production by flow cytometry; assay type: cell-based, human; conditions: 4 hrs
Method: PBMCs from normal human donors (n=5) were incubated for 24 hrs at 37° C., 5% CO2, in either medium (RPMI 1640+10% fetal bovine serum) or medium supplemented with 5 μM WP1066. Cells were then stained with fluorescent antibodies to CD11b and either CD80 or CD86 and analyzed by flow cytometry. Glioma-infiltrating microglia were purified from freshly resected GBM patient tumor tissue (n=3) and incubated in either medium or medium supplemented with WP1066 (1 μM). After incubation, microglia (CD11b^+/CD45^+) were double stained with fluorescent antibodies to CD11b and either CD80 or CD86, and analyzed by flow cytometry. Numbers in the upper right quadrant of each graph denote the percentage of CD11b^+ gated cells that express either CD80 or CD86. […] Cells were then labeled with CD11b/CD14 macrophage markers and stained and analyzed for intracellular cytokine production. Percentages of macrophages that were CD11b^+/CD14^+ and also positive for the respective cytokine were calculated by flow cytometry analysis. A scatter plot representative of all samples analyzed for macrophage intracellular cytokine production was determined with LPS-treated cells (circles) and WP1066-treated cells (diamonds). The black bars denote the mean values of each subgroup, p values determining statistical significance between LPS-stimulated groups and WP1066-stimulated groups were determined using Student's t test (NS, not statistically significant). […] Carboxyfluoroscein succinimidyl ester (CFSE)-labeled CD8^+ T cells isolated from newly diagnosed GBM patients were incubated with untreated autologous APCs (CD11b^+/CD14^+) and anti-CD3 antibody, with anti-CD3 antibody+anti-CD28 antibody, and with LPS-treated (5 μg/mL) autologous APCs or WP1066-treated (1 μM) autologous APCs. In all cases, cells were incubated for 4 days at 37° C., 5% CO2, followed by surface staining for T cell markers (CD3, CD8) and analysis by flow cytometry. The number on each plot indicates the percentage of CD8^+ gated cells that have undergone cell division via CFSE dilution. […] For (A-C), modified Percoll density gradient (1.083 g/mL) centrifugation was used to isolate PBMCs of both GBM patients and normal donors. CD8+ T cells were isolated by magnetic bead separation and then labeled with CFSE. Autologous APCs were purified from the above density gradient buffy-coat layer by negative selection, using a monocyte bead isolation kit and magnetic separation column. Purity of all cell populations was determined to be at least 97% by flow cytometry. Autologous microglia/macrophages from GBM patients were purified from freshly resected human glioma/brain tissue using a modified Percoll gradient isolation technique. All APCs were treated with the respective stimulants (control medium alone, LPS, or WP1066) for 24 hours and then washed prior to incubation with T cells in the proliferation assay. […] T cells from the same patients were isolated with human CD3 microbeads and a magnetic separation column, with the exception of one patient who lacked sufficient PBMCs for both monocyte and T cell isolations. Monocytes or T cells seeded at a density of 1×10^6 cells per well in 6-well culture plates and were incubated at 37° C., 5% CO2, with either the medium or medium supplemented with 5 μM WP1066. After 2 hours, monocytes and T cells were stimulated for 5 minutes with 2 μg/mL LPS and 5 μg/mL anti-CD3 antibody, respectively, in the presence or absence of WP1066. […]

[3] = tested on: T cells isolated from peripheral blood of GBM patients; assay: T cell proliferation (CFSE dilution) with treated antigen-presenting cells; assay type: cell-based, human; conditions: GBM patient T cells with treated macrophages/APCs; WP1066 1 μM, LPS 5 μg/mL, 4 days
Method: PBMCs from normal human donors (n=5) were incubated for 24 hrs at 37° C., 5% CO2, in either medium (RPMI 1640+10% fetal bovine serum) or medium supplemented with 5 μM WP1066. Cells were then stained with fluorescent antibodies to CD11b and either CD80 or CD86 and analyzed by flow cytometry. Glioma-infiltrating microglia were purified from freshly resected GBM patient tumor tissue (n=3) and incubated in either medium or medium supplemented with WP1066 (1 μM). After incubation, microglia (CD11b^+/CD45^+) were double stained with fluorescent antibodies to CD11b and either CD80 or CD86, and analyzed by flow cytometry. […] Cells were then labeled with CD11b/CD14 macrophage markers and stained and analyzed for intracellular cytokine production. Percentages of macrophages that were CD11b^+/CD14^+ and also positive for the respective cytokine were calculated by flow cytometry analysis. A scatter plot representative of all samples analyzed for macrophage intracellular cytokine production was determined with LPS-treated cells (circles) and WP1066-treated cells (diamonds). The black bars denote the mean values of each subgroup, p values determining statistical significance between LPS-stimulated groups and WP1066-stimulated groups were determined using Student's t test (NS, not statistically significant). […] Purity of all cell populations was determined to be at least 97% by flow cytometry. […]

[4] = tested on: CD80 and CD86; assay: Costimulatory molecule expression (CD80, CD86) by flow cytometry; assay type: cell-based, human
Method: (§1) PBMCs from normal human donors (n=5) were incubated for 24 hrs at 37° C., 5% CO2, in either medium (RPMI 1640+10% fetal bovine serum) or medium supplemented with 5 μM WP1066. Cells were then stained with fluorescent antibodies to CD11b and either CD80 or CD86 and analyzed by flow cytometry. Glioma-infiltrating microglia were purified from freshly resected GBM patient tumor tissue (n=3) and incubated in either medium or medium supplemented with WP1066 (1 μM). After incubation, microglia (CD11b^+/CD45^+) were double stained with fluorescent antibodies to CD11b and either CD80 or CD86, and analyzed by flow cytometry. Numbers in the upper right quadrant of each graph denote the percentage of CD11b^+ gated cells that express either CD80 or CD86. […] Cells were then labeled with CD11b/CD14 macrophage markers and stained and analyzed for intracellular cytokine production. Percentages of macrophages that were CD11b^+/CD14^+ and also positive for the respective cytokine were calculated by flow cytometry analysis. A scatter plot representative of all samples analyzed for macrophage intracellular cytokine production was determined with LPS-treated cells (circles) and WP1066-treated cells (diamonds). The black bars denote the mean values of each subgroup, p values determining statistical significance between LPS-stimulated groups and WP1066-stimulated groups were determined using Student's t test (NS, not statistically significant). […] Carboxyfluoroscein succinimidyl ester (CFSE)-labeled CD8^+ T cells isolated from newly diagnosed GBM patients were incubated with untreated autologous APCs (CD11b^+/CD14^+) and anti-CD3 antibody, with anti-CD3 antibody+anti-CD28 antibody, and with LPS-treated (5 μg/mL) autologous APCs or WP1066-treated (1 μM) autologous APCs. In all cases, cells were incubated for 4 days at 37° C., 5% CO2, followed by surface staining for T cell markers (CD3, CD8) and analysis by flow cytometry. […] Purity of all cell populations was determined to be at least 97% by flow cytometry. […]

[5] = target: T1, Stat-3 (Homo sapiens, UniProt P40763); assay: Phosphorylated Stat-3 by intracellular staining and flow cytometry in PBMCs; assay type: cell-based; conditions: doses achievable in vivo (1 nM-5 μM)
T1 construct: normal donor peripheral blood mononuclear cells (PBMCs) were assessed for phosphorylated Stat-3 activity; endogenous in cells; host or cells: normal donor peripheral blood mononuclear cells (PBMCs)

[6] = tested on: monocytes isolated from GBM patients; assay: Immunoblotting of signaling proteins in GBM patient monocytes; assay type: cell-based, human; conditions: 5 μM
Method: (§2) To determine how WP1066 induces these potent immune responses, T cells and monocytes isolated from GBM patients were treated with WP1066 and subsequently lysed and analyzed by immunoblotting for critical signaling proteins. […] The tyrosine phosphorylation of Syk initiates downstream signaling events during human monocyte activation, whereas the phosphorylation of Tyr319 in Zap-70 plays a critical role in mediating T cell activation via signaling through the T cell receptor. Raeder, E. M. et al. J Immunol 163, 6785-93 (1999); Williams, B. L. et al. EMBO 18, 1832-1844 (1999). Both Syk and ZAP-70 can be phosphorylated through autophosphorylation and transphosphorylation. […] The tyrosine phosphorylation of critical signaling proteins induced/enhanced by WP1066 are likely pivotal to the WP1066-induced restoration of immune function in GBM patients and explains the mechanisms of potent immune activation.
as §1, with “APCs.” for “APCs. In all cases, cells were incubated for 4 days at 37° C., 5% CO2, followed by surface staining for T cell markers (CD3, CD8) and analysis by flow cytometry.”

[7] = tested on: T cells; assay: Immunoblotting of signaling proteins in GBM patient T cells; assay type: cell-based, human; conditions: 5 μM
Method: as §2
PBMCs from normal human donors (n=5) were incubated for 24 hrs at 37° C., 5% CO2, in either medium (RPMI 1640+10% fetal bovine serum) or medium supplemented with 5 μM WP1066. Cells were then stained with fluorescent antibodies to CD11b and either CD80 or CD86 and analyzed by flow cytometry. […] After incubation, microglia (CD11b^+/CD45^+) were double stained with fluorescent antibodies to CD11b and either CD80 or CD86, and analyzed by flow cytometry. […] Cells were then labeled with CD11b/CD14 macrophage markers and stained and analyzed for intracellular cytokine production. Percentages of macrophages that were CD11b^+/CD14^+ and also positive for the respective cytokine were calculated by flow cytometry analysis. A scatter plot representative of all samples analyzed for macrophage intracellular cytokine production was determined with LPS-treated cells (circles) and WP1066-treated cells (diamonds). The black bars denote the mean values of each subgroup, p values determining statistical significance between LPS-stimulated groups and WP1066-stimulated groups were determined using Student's t test (NS, not statistically significant). […]

[8] = tested on: intracerebral B16 cells; assay: Survival of C57BL/6J mice with established intracerebral tumors; assay type: in vivo
[9] = tested on: Foxp3; assay: Intracellular Foxp3 expression in iTreg differentiation and natural Tregs by flow cytometry; assay type: cell-based, C57BL/6J mice; conditions: 0, 0.1 and 1 μM, more than 96 hours
Method: CD4+CD25−CD62L^hi naïve T cells from C57BL/6J mice were stimulated by plate-bound anti-CD3 (2 μg/ml) and soluble anti-CD28 (2 μg/ml) antibodiesin the presence of TGF-β1 (1 ng/ml) plus hIL-2 (200 U/ml) with addition of different concentrations of WP1066 (0, 0.1, and 1 μM) for inducible Treg (iTreg) differentiation; CD4+CD25+ T cells (natural Tregs [nTreg]) were stimulated by plate-bound anti-CD3 (2 μg/ml) antibodies in the presence of hIL-2 (200 U/ml) with addition of different concentrations of WP1066 (0, 0.1, and 1 μM). More than 96 hours after stimulation, the cells were analyzed for intracellular Foxp3 expression using flow cytometry.

[10] = tested on: intracerebral B16; assay: Survival of nude mice with established intracerebral B16; assay type: in vivo
[11] = tested on: tumor cell types, including malignant gliomas; conditions: variety of tumor cell types; cited from earlier work
[12] = mouse, in vivo
Method: (§3) FIG. 1 depicts the novel small molecule inhibitor, WP1066, that inhibits Stat-3 activity and has significant central nervous system (CNS) and glioma tumor penetration in vitro and in vivo. FIG. 1A provides the chemical structure of WP1066. […] WP1066 was injected intraperitoneally (IP) at doses of 100 mg/kg every other day for two weeks in nude mice. Specifically, plasma, CNS tissue, and U87-MG flank tumors were harvested and, after extraction, were analyzed for WP1066 content using tandem liquid chromatography/mass spectrometry. […] Cells were stained with fluorescently-labeled anti-CD3 and anti-CD11b antibodies, and propidium iodide (PI) and analyzed by flow cytometry. Macrophages and T cells were gated on CD11b^+ and CD3^+ populations, respectively, and cell death (%) was quantified as CD11b^+PI^+ or CD3^+PI^+ populations in the respective plots. Plots represent the 5 μM maximum dose (clear histogram) compared to control untreated cells (shaded histogram) incubated under similar conditions.

[13] = Plasma concentration after oral administration; assay type: in vivo; conditions: mice
From the text: Patients with malignant human gliomas have a preponderance of immunosuppressive cytokines, a lack of effector/activated T cells, enhanced regulatory T cells (Tregs), and inadequate antigen-presentation functional activity, contributing to their profound immunosuppression. Known immune stimulators within these patients are insufficient to overcome these influences. Therefore, we investigated whether a pharmacological derivative of the natural compound, caffeic acid (WP1066)(FIG. 1A), a small molecule inhibitor of Stat-3 activity, can (in physiologically relevant doses) attenuate these suppressed immune responses.

[14] = tested on: normal donor PBMCs; assay: Cell death (propidium iodide) of macrophages and T cells in PBMCs; assay type: cell-based, human; conditions: 1 nM-5 μM, 2 and 4 hours
Method: as §3

[15] = normal donors and GBM patients, 5 μM

T1 sequence (P40763 whole entry): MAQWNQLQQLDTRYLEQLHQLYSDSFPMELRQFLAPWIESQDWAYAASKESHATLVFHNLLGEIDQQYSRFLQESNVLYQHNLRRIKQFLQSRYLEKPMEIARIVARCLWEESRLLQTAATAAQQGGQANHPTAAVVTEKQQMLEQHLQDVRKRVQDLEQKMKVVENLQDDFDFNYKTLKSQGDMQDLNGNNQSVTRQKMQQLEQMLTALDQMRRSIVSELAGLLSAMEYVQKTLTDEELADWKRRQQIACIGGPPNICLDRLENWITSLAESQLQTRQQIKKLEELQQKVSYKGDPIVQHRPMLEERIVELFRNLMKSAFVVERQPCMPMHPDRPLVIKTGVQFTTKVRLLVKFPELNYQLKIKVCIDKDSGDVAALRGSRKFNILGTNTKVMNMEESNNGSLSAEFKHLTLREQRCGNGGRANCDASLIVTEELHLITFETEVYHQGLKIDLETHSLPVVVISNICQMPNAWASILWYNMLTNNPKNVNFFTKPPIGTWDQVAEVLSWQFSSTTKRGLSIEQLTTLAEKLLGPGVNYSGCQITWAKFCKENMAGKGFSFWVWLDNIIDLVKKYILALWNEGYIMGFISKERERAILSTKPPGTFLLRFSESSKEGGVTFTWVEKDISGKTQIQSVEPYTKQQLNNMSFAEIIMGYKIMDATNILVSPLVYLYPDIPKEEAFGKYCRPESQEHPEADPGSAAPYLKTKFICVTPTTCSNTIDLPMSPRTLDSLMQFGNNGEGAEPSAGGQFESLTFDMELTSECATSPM

lipopolysaccharide [LPS, reference compound]
up regulating costimulatory molecules on microglia isolated directly from GBM patients [1]: totally insufficient
IL-1β levels compared with WP1066 ([2]; LPS 5 μg/mL): significantly higher levels
T cell proliferation [3]: unable to induce any T cell proliferation

C[C@H](NC(=O)/C(C#N)=C/c1cccc(Br)n1)c1ccccc1 [WP1066]
CD80 and CD86 on tumor-infiltrating microglia/macrophages from GBM patients ([4]; 1 μM): capable of upregulating CD80 and CD86
CD80 and CD86 on normal donor PBMCs ([4]; 5 μM, 24 hrs): capable of upregulating CD80 and CD86
up regulation of costimulation in human monocytes ([4]; incubated with IL-10 and TGF-β (data not shown)): can be achieved
inhibition of Stat-3 within immune cells [5]: inhibit Stat-3
tyrosine phosphorylation in monocytes and T cells ([6]; proteins of 70 to 75 KDa and 50 to 60 KDa, also T cells): induced or enhanced
levels of p57/p59-Hck ([6]; monocytes): increased
phospho-p72Syk (Tyr352) ([6]; monocytes): induced
total protein level of Syk ([6]; monocytes): didn't affect
levels of p56-Lck [7]: increased
phospho-ZAP-70 (Tyr319) [7]: induced
total protein level of ZAP-70 [7]: markedly decreased
immunological memory on rechallenge ([8]; animals surviving longer than 78 days, tumor cells into contralateral hemisphere): minimal immunological memory was induced
anti-tumor efficacy (survival) ([8]; established intracerebral B16 cells, oral gavage, compared with B16EGFRvIII model): Identical anti-tumor efficacy
efficacy after in vivo depletions of CD4+ and CD8+ T cells ([8]; established intracerebral syngeneic murine models): abrogates the efficacy
Foxp3 expression in natural Tregs [9]: downregulates Foxp3 expression
Foxp3 induction in peripheral T cells ([9]; iTreg differentiation): inhibits Foxp3 induction
clinical effectiveness (survival) in immune incompetent background [10]: abrogates the clinical effectiveness
proapoptotic activity [11]: proapoptotic activity
uptake of the compound by tumors versus other tissue [12]: higher drug content than any other tissue
central nervous system (CNS) concentrations ([12]; nude): 0.185 µM
concentrations in tumor ([12]; nude): 1070 nM
concentrations per gram of tumor ([12]; nude): 362 μg/gram
concentrations within orthotopic gliomas ([12]; nude): 1070 nM
IL-2 induction from macrophages [2, 15]: induce
IL-4 induction from macrophages [2, 15]: induce
IL-12 induction from macrophages [2, 15]: induce
IL-15 induction from macrophages [2, 15]: induce
plasma concentrations [13]: > 2000 nM
cell viability [14]: not compromised
T cell proliferation [3]: potently induced T cell proliferation
